Measured values taken from patent US20030130200A1, “Small peptides and methods for treatment of asthma and inflammation” (Hisatek, LLC, priority 1997, published 2003).
Entries after “also recorded” stand apart in the source; their conditions may differ. Where no end group is shown, it is not given here. The star is where a group is joined. For = O=C*

System: OVA-induced asthmatic mice
Assay: OVA-induced bronchial asthma mouse model, Standard/Resolution protocols, drug before each i.n. challenge
Format: in vivo, mouse (female BALB/c)
From the text: The OVA-Induced Bronchial Asthma Mouse Model for Inhibition of Mast Cell Degranulation
Reagents: Crystalline OVA was obtained from Pierce Chem. Co. (Rockford, Ill.) aluminum potassium sulfate (alum) from Sigma Chem. Co. (St. Louis, Mo.), pyrogen-free distilled water from Baxter, Healthcare Corporation (Deerfield, Ill.), 0.9% sodium chloride (normal saline) from Lymphomed (Deerfield, Ill.) and Trappsol™ HPB-L100 (aqueous hydroxypropyl beta cyclodextrin; 45 wt/vol % aqueous solution) from Cyclodextrin Technologies Development, Inc. (Gainesville, Fla.). The OVA (500 μg/ml in normal saline) was mixed with equal volumes of 10% (wt/vol) alum in distilled water. The mixture (pH 6.5 using 10 N NaOH) after incubation for 60 minutes at room temperature underwent centrifugation at 750 g for 5 minutes; the pellet was resuspended to the original volume in distilled water and used within one hour.
The selective 5-lipoxtgenase inhibitor, Zileuton (N-[1-benzo[b]thien-2-ylethyl]-N-hydroxyurea; J. Pharmacol Exp Ther. 1991; 256: 929-937), was kindly provided by Drs. Bell and George W. Carter (Abbott Laboratories, Abbott Part, Ill.). Zileuton was dissolved in Trappsol.™. Histatek, Inc. (Seattle, Wash.) provided the mast cell degranulation inhibitor, f-Met-Leu-Phe-Phe (“HK-X”).
Female BALB/c […] (6-8 wk of age at purchase; D and K, Seattle Wash.) were housed under conventional conditions for the studies.
Allergen Immunization/Challenge Protocols: Mice received an i.p. injection of 0.2 ml (100 μg) of OVA with alum on the different protocols of Standard (FIG. 5A) and Resolution (FIG. 5B) (J. Exp Med. 1996; 184: 1483-1494). According to the different protocols, mice were anesthetized with 0.2 ml i.p. of ketamine (0.44 mg/ml)/xylazine (6.3 mg/ml) in normal saline before receiving an intranasal (i.n.) does of 100 μg OVA in 0.05 ml normal saline and an i.n. dose of 50 μg OVA in 0.05 ml normal saline separately on different days. Two control groups were used. Accordingly, the first group received normal saline with alum i.p. and normal saline without alum i.n.; the second group received OVA with alum i.p., OVA without alum i.n., and normal saline, alone.
The trachea and left lung (the right lung is used for bronchoalveolar lavage (“BAL”)) were obtained and fixed in 10% neutral formaldehyde solution at room temperature for 6˜15h. After being embedded in paraffin, the tissues were cut into 5-um sections and processed with the different staining or immunolabling further. Discombe's eosinophil staining was used for counting the cell numbers with the counterstain of methylene blue. The eosinophil number per unit airway area (2,200 μm^2) was determined by morphometry (J. Pathol. 1992; 166: 395-404; Am Rev Respir Dis. 1993; 147:448-456). Fibrosis was identified with the Masson's trichrome staining. Airway mucus was identified by the following staining method: methylene blue, hematoxylin and eosin, mucicarmine, alcian blue, and alcian blue/periodic acid-Schiff (PAS) reaction (Troyer, H., “Carbohydrates” in Principles and Techniques of Histochemistry, Little, Brown and Company, Boston, Mass., 1980: 89-121; Sheehan, D. C., et al., “Carbohydrates” in Theory and Practice of Histotechnology, Battle Press, Columbus, Ohio, 1980: 159-179). Mucin was stained with mucicarmine solution; metanil yellow counterstain was employed.
Acidic mucin and sulfated mucosubstances were stained with alcian blue, pH 2.5; nuclear fast red counterstain was used. Neutral and acidic mucosubstances were identified by alcian blue. pH 2.5, and PAS reaction. The degree of mucus plugging of the airways (0.5-0.8 mm in diameter) was also assessed by morphometry. The percent occlusion of airway diameter by mucus was classified on a semiquantitative scale from 0 to 4+ as described in Figure Legends. The histologic and morphometric analyses were performed by individuals blinded to the protocol design. […]

“f-Met-Leu-Phe-Phe (For-MLFF) [Example 9]” was tested, and the “Reduction of airway eosinophils over time course” value (1-, 2- and 3-month groups, versus OVA) was “reduced eosinophils comparably at one month, but much more beneficially at two and three months”, the “% of plug of airway” value (28 days) was 19% and the “Mucus plug score in airways” value (28 days, semiquantitative scale 0 to 4+) was 1.4. The “Mucus accumulation / mucus release in the airway (histology, morphometry)” value (HK-X given before i.n. OVA, FIG. 6, listed as HK-X) was “inhibits mucus accumulation; also recorded: markedly reduced”, the “Infiltration of the interstitial tissue by eosinophils (histology)” value (compared to OVA-challenge alone, FIG. 6C) was “also reduced” and the “Formation of mucus plugs / mucus production in small airways” value (doses of 5 μg/kg and 10 μg/kg, FIG. 7) was “Both doses significantly reduce the mucus production in small airways”.
